Laboratory results taken from US6579718B1, “Carbazolylvinyl dye protein stains” (Molecular Probes, Inc., priority 2000, dated 2003).

Legend:
[1] = tested on: whole cell lysates of rat fibroblasts; experiment: Staining of two-dimensional gels of rat fibroblast lysates (Example 23); details: 2-D gel, photography with 490-nm long pass filter
Method: The non-fixative nature of the staining solution is illustrated by evaluating passive elution of proteins from a polyacrylamide matrix. Passive diffuision of proteins is evaluated by staining two-dimensional gels in 7% acetic acid or in phosphate-buffered saline using Compound 9. Whole cell lysates of rat fibroblasts are extracted according to standard procedures for mammalian cells. Approximately 50 μg total protein is applied per gel and large format two dimensional gel electrophoresis is performed by standard methods. Compound 9 staining solution is prepared by diluting the stock reagent to 2 μM in either 7.5% acetic acid or 50 mM Na2HPO4, 150 mM NaCl, pH 7.0 while vigorously mixing. Approximately 500-750 mL of Compound 9 staining solution is used for a typical large format 2-D gel (20 cm×20 cm×1 mm). The gel is placed into the staining solution and the container is covered with aluminum foil to protect the dye from bright light. The gel is gently agitated for at least 30 minutes at room temperature using an orbital shaker (50 RPM). After staining the gel is briefly dipped in water and visualized on a UV light box. […] As little as 1 ng of protein can be visualized when the fluorescent image is recorded by photography using a cellophane 490-nm long pass filter. […]

[2] = tested on: broad-range protein molecular weight markers; experiment: Staining of broad-range molecular weight protein standards in SDS-polyacrylamide gels (Example 22, FIG. 2, 3)
Method: FIG. 2: Intensity profile comparison after staining broad-range protein molecular weight markers with SYPRO Orange dye in 7% acetic acid and phosohate-buffered saline. FIG. 2A.) Profile obtained with SYPRO Orange dye in 7% acetic acid. FIG. 2B.) Profile obtained with SYPRO Orange dye in 50 mM sodium phosphate, 150 mM sodium chloride, pH 7.0. Grey scale values of the fluorescence signals were inverted prior to obtaining the traces to facilitate evaluation of the peaks.
FIG. 3: Intensity profile comparison after staining broad-range protein molecular weight markers with Compound 9 in 7% acetic acid and phosphate-buffered saline. FIG. 3A.) Profile obtained with Compound 9 in 7% acetic acid. FIG. 3B.) Profile obtained with Compound 9 in 50 mM sodium phosphate, 150 mM sodium chloride, pH 7.0. Grey scale values of the fluorescence signals were inverted prior to obtaining the traces to facilitate evaluation of the peaks.
SDS-polyacrylamide gel electrophoresis is performed by standard methods utilizing 4% T, 2.6% C stacking gels, pH 6.8 and 15% T, 2.6% C separating gels, pH 8.8. % T is the total monomer concentration expressed in grams per 100 mL and % C is the percentage crosslinker. A staining solution of Compound 9 is prepared by diluting a stock solution that 5 is […] dye in DMSO in either 7.5% acetic acid or 50 mM Na2HPO4, 150 mM NaCl, pH 7.0 with vigorous mixing. Alternatively, a wide range of buffers are compatible with staining, including but not limited to formate, pH 4.0; citrate, pH 4.5; acetate, pH 5.0; MES, pH 6.0;
imidazole, pH 7.0; HEPES, pH 7.5; Tris acetate, pH 8.0; Tris-HCl, pH 8.5; Tris borate, 20 mM EDTA, pH 9.0; and bicarbonate, pH 10.0. Buffers should be prepared as 50-100 mM 10 solutions containing about 150 mM NaCl. Approximately 50-75 mL of staining solution is used for a typical mini-gel (5 cm×9 cm×1 mm). The gel is placed into the staining solution and the container is covered with aluminum foil to protect the dye from bright light. The gel is gently agitated for at least 30 minutes at room temperature using an orbital shaker (50:RPM). After staining, the gel is briefly dipped in water and visualized on a UV light box. […] As little as 1 ng of protein may be visualized when the fluorescent image is recorded by photography using a cellophane 490-nm long pass filter. […] In the latter buffer, protein bands are barely detectable above background fluorescence with these latter dyes.

[3] = tested on: proteins; experiment: Staining protein gels with dye in the running buffer (Example 30); details: running buffer with 0.05% SDS and 1-3 μM dye
Method: The proteins of interest are prepared for loading on standard SDS gels, using standard methods. Dilution series of known molecular weight markers, or proteins of unknown concentration, or protein mixtures of unknown composition are used. The gels are loaded and run under standard conditions, excepting that the running buffer contains 0.05% SDS and 1-3 μM Compound 9. The stained gels are either photographed directly after electrophoresis or are destained in 7.5% acetic acid or phosphate-buffered saline for 20-50 minutes to remove background staining prior to photography. […] In addition, the migration of protein bands can be monitored through the glass plates that support the gel, during electrophoresis. Such monitoring can either be calorimetric, since the stained protein bands are visually colored, or can be via fluorescence, if the excitation source is at visible wavelengths (such as a laser or mercury-arc lamp, for example).

[4] = tested on: proteins; experiment: Staining of proteins separated in presence of alternative detergents; details: alternative detergents instead of SDS
[5] = molecular target: BSA (Bos taurus, UniProt P02769); experiment: Absorbance/emission spectra, fluorescence enhancement and quantum yield of dyes in solution +/- BSA (Example 21); type: physicochemical, bovine
Method: A particular dye of this invention is generally selected for a particular assay using one or more of the following criteria: sensitivity to poly(amino acids), insensitivity to the presence of nucleic acids, dynamic range, photostability, staining time, and spectral properties. […] Although the fluorescence enhancements and quantum yields are low to moderate in solution, some are significant relative to the long wavelength emission maxima (see Table 1 and Example 21).
Measurements are performed using −1 μM dye+/−150 μg/mL BSA in 10 mM Tris-HCl, pH 7.5,+0.05% SDS with a 2.0 mL sample volume. Fluorescence enhancements are calculated at emission maxima in a standard fluorometer using 470 nm excitation. Fluorescence quantum yields are determined relative to fluorescein (in 0.1 M NaOH), using 470 nm excitation.

[6] = 150 μg/mL BSA, 10 mM Tris-HCl, pH 7.5, 0.05% SDS
[7] = dye without BSA, 10 mM Tris-HCl, pH 7.5, 0.05% SDS

Sequence of BSA (P02769 25-607): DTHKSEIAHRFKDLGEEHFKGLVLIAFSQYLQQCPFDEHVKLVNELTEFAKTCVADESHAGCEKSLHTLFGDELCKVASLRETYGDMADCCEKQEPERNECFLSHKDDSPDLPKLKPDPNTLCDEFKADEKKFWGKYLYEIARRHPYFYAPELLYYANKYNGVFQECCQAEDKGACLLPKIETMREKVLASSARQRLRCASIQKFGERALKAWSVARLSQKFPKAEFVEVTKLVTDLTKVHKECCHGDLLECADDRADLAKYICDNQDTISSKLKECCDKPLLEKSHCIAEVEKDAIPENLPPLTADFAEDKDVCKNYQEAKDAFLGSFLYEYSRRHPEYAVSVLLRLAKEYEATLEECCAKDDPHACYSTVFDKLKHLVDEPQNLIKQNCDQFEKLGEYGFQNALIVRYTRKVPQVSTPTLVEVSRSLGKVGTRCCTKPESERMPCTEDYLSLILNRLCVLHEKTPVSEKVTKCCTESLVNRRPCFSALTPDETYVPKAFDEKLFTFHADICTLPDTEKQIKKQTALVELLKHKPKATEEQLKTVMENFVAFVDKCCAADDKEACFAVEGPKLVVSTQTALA

`CCn1c2ccccc2c2cc(/C=C/c3cc[n+](CCCCS(=O)(=O)[O-])c4ccccc34)ccc21` [Compound 9] was tested, and the “Amount of protein that can be visualized (detection sensitivity)” value [1] was 1 ng, the “Brightness of protein band staining” value ([2]; 7% acetic acid) was “as brightly as SYPRO Orange dye” and the “Amount of protein that may be visualized (detection sensitivity)” value ([2]; SDS-polyacrylamide gel, photography with 490-nm long pass filter) was 1 ng. For the same compound, the “Brightness of protein staining compared with SYPRO Orange dye” value ([2]; phosphate-buffered saline) was “much more brightly”, the “Appearance of stained proteins on UV light box” value ([2]; regardless of the buffer) was “bright orange bands” and the “Sensitivity compared with staining gels after electrophoresis” value [3] was “about the same”. For the same compound, the “Staining of proteins separated in presence of Triton X-100 or N-benzyl-N,N-dimethylhexadecylammonium chloride” value [4] was “does not stain proteins”, the ABS λ max, BSA [5, 6] was 480 nm and the “EM λ max, BSA” value [5, 6] was 604 nm. For the same compound, the “FE (fluorescence enhancement, BSA)” value ([5]; 150 μg/mL BSA, 0.05% SDS, at emission maxima, 470 nm excitation) was 92 fold, the “Quantum Yield (BSA)” value ([5]; 150 μg/mL BSA, relative to fluorescein in 0.1 M NaOH, 470 nm excitation) was 0.21 and the ABS λ max, unbound [5, 7] was 479 nm. The “EM λ max, unbound” value [5, 7] was ~700 nm.
